Here are results for 8 compounds from PMC4955201, “α-Glucosidase inhibitors from the bark of Mangifera mekongensis” (Chemistry Central Journal, 2016).

Read-outs that look alike come from different tables or passages of the source.

The assay deals with T1, α-Glucosidase (EC 3.2.1.20) from Saccharomyces cerevisiae (Saccharomyces cerevisiae, UniProt P53341).
T1 construct: purchased Sigma Chemical Co. (St. Louis, MO, USA)
The experiment in a line: biochemical. Format: biochemical. The following applies: for inhibition at 50 µM / inhibition at 100 µM / inhibition at 250 µM / inhibition at 10 µM / inhibition at 25 µM / inhibition at 1 µM / inhibition at 2.5 µM / inhibition at 5 µM: read-out: Inhibition (I %); for α-glucosidase inhibitory activity (in words): tested at 1 to 250 µM. Here is the method:
α-Glucosidase (EC 3.2.1.20) from Saccharomyces cerevisiae (750 UN) and p-nitrophenyl-α-D-glucopyranoside were obtained from Sigma Chemical Co. (St. Louis, MO, USA). […] Silica gel 60, 40–63 µm (230–400 mesh ASTM), for column chromatography was purchased from Scharlau (Barcelona, Spain). Analytical and preparative TLC were carried out on precoated Kiesegel 60F254 or RP-18F254 plates (0.25 or 0.5 mm thickness) (Merck, Germany). Other chemicals were of the highest grade available.
The inhibitory activity of α-glucosidase was determined according to the modified method of Kim et al.. 3 mM p-nitrophenyl-α-D-glucopyranoside (25 μL) and 0.2 U/mL α-glucosidase (25 μL) in 0.01 M phosphate buffer (pH = 7.0) were added to the sample solution (625 μL) to start the reaction. Each reaction was carried out at 37 °C for 30 min and stopped by adding 0.1 M Na2CO3 (375 μL). […] One unit of α-glucosidase activity was defined as amount of enzyme liberating p-nitrophenol ([…]) per min.

The mark [1] stands for this setting: isolated compounds, pH 7.0, 37 °C, 30 min, read-out: α-Glucosidase inhibitory activity IC50.

T1 sequence (P53341 whole entry): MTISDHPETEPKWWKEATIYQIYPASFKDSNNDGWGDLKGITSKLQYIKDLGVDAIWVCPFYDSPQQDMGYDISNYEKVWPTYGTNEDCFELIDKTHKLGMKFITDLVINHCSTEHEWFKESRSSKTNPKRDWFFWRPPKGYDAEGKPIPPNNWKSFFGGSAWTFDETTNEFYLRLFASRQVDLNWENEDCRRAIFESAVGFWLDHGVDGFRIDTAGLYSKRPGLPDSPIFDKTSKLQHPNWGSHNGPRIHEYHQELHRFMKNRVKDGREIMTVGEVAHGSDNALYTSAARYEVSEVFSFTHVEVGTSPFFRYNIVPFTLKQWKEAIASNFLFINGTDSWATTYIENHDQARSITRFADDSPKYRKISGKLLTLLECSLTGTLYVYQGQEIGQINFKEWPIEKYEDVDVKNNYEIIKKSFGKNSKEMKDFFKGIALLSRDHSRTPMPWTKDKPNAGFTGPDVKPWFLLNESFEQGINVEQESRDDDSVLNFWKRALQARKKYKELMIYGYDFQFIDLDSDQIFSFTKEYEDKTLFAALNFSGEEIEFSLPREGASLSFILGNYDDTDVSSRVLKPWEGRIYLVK

`C[C@H]1O[C@H](O[C@H]2[C@H](O)[C@@H](O)[C@@H](O[C@H]3[C@H](O)[C@@H](O)C(O)O[C@@H]3CO)O[C@@H]2CO)[C@H](O)[C@@H](O)[C@@H]1N[C@H]1C=C(CO)[C@@H](O)[C@H](O)[C@H]1O` (stereo partly shown) [Acarbose, reference compound]: the inhibition at 50 µM stood at 9.8 ± 1.1%, the inhibition at 100 µM came out at 21.2 ± 2.2% and the inhibition at 250 µM stood at 59.8 ± 1.2%.
Take `CCCCCCCCCCCCCCCCCCC(=O)OC1CCC2(C)C(=CCC3C2CCC2(C)C(C(C)CCC(CC)C(C)C)CCC32)C1` (stereo not drawn) [Compound 1, 3β-nonadecanoylsitosterol]: the inhibition at 10 µM is 24.4 ± 1.8%, the inhibition at 25 µM was 38.6 ± 1.2%, the inhibition at 50 µM worked out at 67.7 ± 1.4% and the inhibition at 100 µM is 91.8 ± 1.1%. The IC50 under setting [1] was determined as 27.7 µM.
Consider `CCC(CCC(C)C1CCC2C3CC=C4CC(OC(=O)CCCCCCCC(=O)O)CCC4(C)C3CCC12C)C(C)C` (stereo not drawn) [Compound 2, 3β-(8-carboxyoctanoyl)sitosterol], for which the inhibition at 1 µM was determined as 15.2 ± 1.2%, the inhibition at 2.5 µM is 50.8 ± 1.1%, the inhibition at 5 µM came to 82.6 ± 1.4% and the inhibition at 10 µM amounted to 93.1 ± 1.2%. For the same compound, the IC50 under setting [1] turned out to be 2.5 µM.
Consider `CC[C@H](CC[C@@H](C)[C@H]1CC[C@H]2[C@@H]3CC=C4C[C@@H](O)CC[C@]4(C)[C@H]3CC[C@]12C)C(C)C` [Compound 3, β-sitosterol], for which the “α-glucosidase inhibitory activity (in words)” value was “inactive”. In addition, the IC50 under setting [1] is above 250 µM.
The matching figures for `CC[C@H](CC[C@@H](C)[C@H]1CC[C@H]2[C@@H]3CC(=O)C4CC(=O)CC[C@]4(C)[C@H]3CC[C@]12C)C(C)C` (stereo partly shown) [Compound 4, stigmastane-3,6-dione]: “inactive” and above 250 µM.
Turning to `CCCCCCCCCCCCCCCC(=O)OC[C@H]1O[C@@H](O[C@H]2CC[C@@]3(C)C(=CC[C@H]4[C@@H]5CC[C@H]([C@H](C)CC[C@@H](CC)C(C)C)[C@@]5(C)CC[C@@H]43)C2)[C@H](O)[C@@H](O)[C@@H]1O` [Compound 5, β-sitosteryl-3-O-β-D-glucopyranosyl-6′-O-palmitate], the inhibition at 10 µM was found to be 32.1 ± 2.3%, the inhibition at 25 µM was determined as 49.7 ± 3.1%, the inhibition at 50 µM amounted to 75.9 ± 2.6% and the inhibition at 100 µM is 90.9 ± 1.4%. The IC50 under setting [1] was found to be 21.1 µM.
As to `CC(=CCCC(C)C1CCC2(C)C3CCC4C(C)(C)C(=O)CCC45CC35CCC12C)C(=O)O` (stereo not shown) [Compound 8, ambonic acid], the IC50 came out at 1.2 µM, the inhibition at 1 µM worked out at 46.5 ± 1.1%, the inhibition at 2.5 µM was 62.5 ± 1.1% and the inhibition at 5 µM was 78.4 ± 1.6%. Further, the inhibition at 10 µM amounted to 87.5 ± 1%.
Consider `CC(=CCCC(C)C1CCC2(C)C3CCC4C(C)(C)C(O)CCC45CC35CCC12C)C(=O)O` (stereo not shown) [Compound 9, ambolic acid], for which the IC50 came to 112 µM, the inhibition at 50 µM is 15.9 ± 1.1%, the inhibition at 100 µM was found to be 32.2 ± 1% and the inhibition at 250 µM was 95.9 ± 1%.
